From PubChem BioAssay (NCI)
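96-well plates; 48 h exposure; 5 concentrations. Endpoints by linear interpolation between flanking doses. Not reached: highest tested concentration assigned. Definition used: TGI = concentration required for complete inhibition of growth.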

Tests used:
Assay in all cases: DTP human tumour cell line panel, 48 h
786-0 renal = tested on: 786-0 renal
CAKI-1 renal = tested on: CAKI-1 renal
COLO 205 colon = tested on: COLO 205 colon
DLD-1 colon = tested on: DLD-1 colon
DMS 114 small cell lung = tested on: DMS 114 small cell lung
EKVX NSCLC = tested on: EKVX NSCLC
HCC-2998 colon = tested on: HCC-2998 colon
HCT-116 colon = tested on: HCT-116 colon
HCT-15 colon = tested on: HCT-15 colon
HL-60(TB) leukemia = tested on: HL-60(TB) leukemia
HOP-18 NSCLC = tested on: HOP-18 NSCLC
HOP-62 NSCLC = tested on: HOP-62 NSCLC
HT29 colon = tested on: HT29 colon
IGROV1 ovarian = tested on: IGROV1 ovarian
K-562 leukemia = tested on: K-562 leukemia
KM12 colon = tested on: KM12 colon
M14 melanoma = tested on: M14 melanoma
M19-MEL melanoma = tested on: M19-MEL melanoma
MALME-3M melanoma = tested on: MALME-3M melanoma
MOLT-4 leukemia = tested on: MOLT-4 leukemia
NCI-H23 lung = tested on: NCI-H23 lung
OVCAR-3 ovarian = tested on: OVCAR-3 ovarian
OVCAR-4 ovarian = tested on: OVCAR-4 ovarian
OVCAR-5 ovarian = tested on: OVCAR-5 ovarian
OVCAR-8 ovarian = tested on: OVCAR-8 ovarian
RPMI-8226 leukemia = tested on: RPMI-8226 leukemia
RXF 393 renal = tested on: RXF 393 renal
SF-295 CNS = tested on: SF-295 CNS
SF-539 CNS = tested on: SF-539 CNS
SK-MEL-2 melanoma = tested on: SK-MEL-2 melanoma
SK-MEL-28 melanoma = tested on: SK-MEL-28 melanoma
SK-MEL-5 melanoma = tested on: SK-MEL-5 melanoma
SK-OV-3 ovarian = tested on: SK-OV-3 ovarian
SNB-19 CNS = tested on: SNB-19 CNS
SNB-78 CNS = tested on: SNB-78 CNS
TK-10 renal = tested on: TK-10 renal
U251 CNS = tested on: U251 CNS
UO-31 renal = tested on: UO-31 renal
XF 498 CNS = tested on: XF 498 CNS
A498 renal = tested on: A498 renal
A549 NSCLC = tested on: A549 NSCLC
ACHN renal = tested on: ACHN renal
CCRF-CEM leukemia = tested on: CCRF-CEM leukemia
DMS 273 small cell lung = tested on: DMS 273 small cell lung
HOP-92 NSCLC = tested on: HOP-92 NSCLC
KM20L2 colon = tested on: KM20L2 colon
LOX IMVI melanoma = tested on: LOX IMVI melanoma
LXFL 529 NSCLC = tested on: LXFL 529 NSCLC
NCI-H226 lung = tested on: NCI-H226 lung
NCI-H460 lung = tested on: NCI-H460 lung
NCI-H522 lung = tested on: NCI-H522 lung
SF-268 CNS = tested on: SF-268 CNS
SN12C renal = tested on: SN12C renal
SNB-75 CNS = tested on: SNB-75 CNS
SR leukemia = tested on: SR leukemia
SW-620 colon = tested on: SW-620 colon
UACC-62 melanoma = tested on: UACC-62 melanoma
UACC-257 melanoma = tested on: UACC-257 melanoma

OC[C@@H]1CC#C/C=C\C#CC[C@@H]1CO
TGI (786-0 renal): > 100 µM | TGI (CAKI-1 renal): > 100 µM | TGI (COLO 205 colon): > 100 µM | TGI (DLD-1 colon): > 100 µM | TGI (DMS 114 small cell lung): > 100 µM | TGI (EKVX NSCLC): > 100 µM | TGI (HCC-2998 colon): > 100 µM | TGI (HCT-116 colon): > 100 µM | TGI (HCT-15 colon): > 100 µM | TGI (HL-60(TB) leukemia): > 100 µM | TGI (HOP-18 NSCLC): > 100 µM | TGI (HOP-62 NSCLC): > 100 µM | TGI (HT29 colon): > 100 µM | TGI (IGROV1 ovarian): > 100 µM | TGI (K-562 leukemia): > 100 µM | TGI (KM12 colon): > 100 µM | TGI (M14 melanoma): > 100 µM | TGI (M19-MEL melanoma): > 100 µM | TGI (MALME-3M melanoma): > 100 µM | TGI (MOLT-4 leukemia): > 100 µM | TGI (NCI-H23 lung): > 100 µM | TGI (OVCAR-3 ovarian): > 100 µM | TGI (OVCAR-4 ovarian): > 100 µM | TGI (OVCAR-5 ovarian): > 100 µM | TGI (OVCAR-8 ovarian): > 100 µM | TGI (RPMI-8226 leukemia): > 100 µM | TGI (RXF 393 renal): > 100 µM | TGI (SF-295 CNS): > 100 µM | TGI (SF-539 CNS): > 100 µM | TGI (SK-MEL-2 melanoma): > 100 µM | TGI (SK-MEL-28 melanoma): > 100 µM | TGI (SK-MEL-5 melanoma): > 100 µM | TGI (SK-OV-3 ovarian): > 100 µM | TGI (SNB-19 CNS): > 100 µM | TGI (SNB-78 CNS): > 100 µM | TGI (TK-10 renal): > 100 µM | TGI (U251 CNS): > 100 µM | TGI (UO-31 renal): > 100 µM | TGI (XF 498 CNS): 6.99 µM

COc1ccc(C(=O)c2c(C(C(=O)c3ccc(OC)cc3)C(=O)c3ccc(OC)cc3)n(C(=O)c3ccc(OC)cc3)c3ccccc23)cc1
TGI (786-0 renal): > 100 µM | TGI (A498 renal): > 100 µM | TGI (A549 NSCLC): > 100 µM | TGI (ACHN renal): > 100 µM | TGI (CAKI-1 renal): > 100 µM | TGI (CCRF-CEM leukemia): > 100 µM | TGI (COLO 205 colon): > 100 µM | TGI (DLD-1 colon): > 100 µM | TGI (DMS 114 small cell lung): > 100 µM | TGI (DMS 273 small cell lung): > 100 µM | TGI (EKVX NSCLC): > 100 µM | TGI (HCC-2998 colon): > 100 µM | TGI (HCT-116 colon): > 100 µM | TGI (HCT-15 colon): > 100 µM | TGI (HL-60(TB) leukemia): > 100 µM | TGI (HOP-62 NSCLC): > 100 µM | TGI (HOP-92 NSCLC): > 100 µM | TGI (HT29 colon): > 100 µM | TGI (IGROV1 ovarian): > 100 µM | TGI (K-562 leukemia): > 100 µM | TGI (KM12 colon): > 100 µM | TGI (KM20L2 colon): > 100 µM | TGI (LOX IMVI melanoma): > 100 µM | TGI (LXFL 529 NSCLC): > 100 µM | TGI (M14 melanoma): > 100 µM | TGI (M19-MEL melanoma): > 100 µM | TGI (MALME-3M melanoma): > 100 µM | TGI (MOLT-4 leukemia): > 100 µM | TGI (NCI-H226 lung): > 100 µM | TGI (NCI-H23 lung): > 100 µM | TGI (NCI-H460 lung): > 100 µM | TGI (NCI-H522 lung): > 100 µM | TGI (OVCAR-3 ovarian): > 100 µM | TGI (OVCAR-4 ovarian): > 100 µM | TGI (OVCAR-5 ovarian): > 100 µM | TGI (OVCAR-8 ovarian): > 100 µM | TGI (RPMI-8226 leukemia): > 100 µM | TGI (RXF 393 renal): > 100 µM | TGI (SF-268 CNS): > 100 µM | TGI (SF-295 CNS): > 100 µM | TGI (SF-539 CNS): > 100 µM | TGI (SK-MEL-2 melanoma): > 100 µM | TGI (SK-MEL-28 melanoma): > 100 µM | TGI (SK-MEL-5 melanoma): > 100 µM | TGI (SK-OV-3 ovarian): > 100 µM | TGI (SN12C renal): > 100 µM | TGI (SNB-19 CNS): > 100 µM | TGI (SNB-75 CNS): > 100 µM | TGI (SNB-78 CNS): > 100 µM | TGI (SR leukemia): > 100 µM | TGI (SW-620 colon): > 100 µM | TGI (TK-10 renal): > 100 µM | TGI (U251 CNS): > 100 µM | TGI (UACC-62 melanoma): > 100 µM | TGI (UO-31 renal): > 100 µM | TGI (XF 498 CNS): > 100 µM

O=C1N[C@H](Cc2cnc[nH]2)C(=O)N2CCC[C@@H]12
TGI (786-0 renal): > 100 µM | TGI (A549 NSCLC): > 100 µM | TGI (ACHN renal): > 100 µM | TGI (CAKI-1 renal): > 100 µM | TGI (CCRF-CEM leukemia): > 100 µM | TGI (COLO 205 colon): > 100 µM | TGI (DLD-1 colon): > 100 µM | TGI (DMS 114 small cell lung): > 100 µM | TGI (DMS 273 small cell lung): > 100 µM | TGI (EKVX NSCLC): > 100 µM | TGI (HCC-2998 colon): > 100 µM | TGI (HCT-15 colon): > 100 µM | TGI (HL-60(TB) leukemia): > 100 µM | TGI (HOP-62 NSCLC): > 100 µM | TGI (HOP-92 NSCLC): > 100 µM | TGI (IGROV1 ovarian): > 100 µM | TGI (K-562 leukemia): > 100 µM | TGI (KM12 colon): > 100 µM | TGI (KM20L2 colon): > 100 µM | TGI (LOX IMVI melanoma): > 100 µM | TGI (LXFL 529 NSCLC): > 100 µM | TGI (M14 melanoma): > 100 µM | TGI (M19-MEL melanoma): > 100 µM | TGI (MALME-3M melanoma): > 100 µM | TGI (MOLT-4 leukemia): > 100 µM | TGI (NCI-H23 lung): > 100 µM | TGI (NCI-H460 lung): > 100 µM | TGI (NCI-H522 lung): > 100 µM | TGI (OVCAR-3 ovarian): > 100 µM | TGI (OVCAR-4 ovarian): > 100 µM | TGI (OVCAR-5 ovarian): > 100 µM | TGI (OVCAR-8 ovarian): > 100 µM | TGI (RPMI-8226 leukemia): > 100 µM | TGI (RXF 393 renal): > 100 µM | TGI (SF-268 CNS): > 100 µM | TGI (SF-295 CNS): > 100 µM | TGI (SK-MEL-2 melanoma): > 100 µM | TGI (SK-MEL-28 melanoma): > 100 µM | TGI (SK-MEL-5 melanoma): > 100 µM | TGI (SK-OV-3 ovarian): > 100 µM | TGI (SN12C renal): > 100 µM | TGI (SNB-19 CNS): > 100 µM | TGI (SNB-75 CNS): > 100 µM | TGI (SNB-78 CNS): > 100 µM | TGI (SW-620 colon): > 100 µM | TGI (TK-10 renal): > 100 µM | TGI (UACC-257 melanoma): > 100 µM | TGI (UACC-62 melanoma): > 100 µM | TGI (UO-31 renal): > 100 µM | TGI (XF 498 CNS): > 100 µM
